Assay results published in patent US9180129B2, “Combination of lapatinib and trametinib” (NOVARTIS AG, priority 2010, dated 2015).
Where two headings read alike, the source gives them in different places.

How the values were obtained:
MDA-MB-453 = test: Cell growth inhibition assay, MDA-MB-453 (breast HER2+); assay type: cell-based; conditions: Homo sapiens, 72 h, 3 days, read-out: Single agent IC50 (μM), mean ± STD
Description: (§1) All lines were kept in a humidified incubator at 37° C. in 95% air and 5% CO2. JIMT-1 is a cell line established from a tumor of a patient with trastuzumab-resistant breast cancer (Tanner et al, Mol Cancer Ther 2004; 3:1585-92).
(§2) All cells were cultured for a minimum of 72 hours prior to cell plating. Cells were seeded in a 96-well tissue culture plate (NUNC 136102) of RPMI media containing 10% FBS for all cell lines at 2,000 cells per well except KPL4, which was plated in DMEM containing 5% FBS at 500 cells per well. […] Cells were incubated in the presence of compounds for 3 days. ATP levels were determined by adding Cell Titer Glo® reagent (Promega) according to the manufacturer's protocol. Briefly, Cell Titer Glo® reagent was added to each plate, incubated for 20 minutes then the luminescent signal was read on the SpectraMax L plate reader with a 0.5 sec integration time.
(§3) Inhibition of cell growth was estimated after treatment with compound or a combination of compounds for three days and comparing the signal to cells treated with vehicle (DMSO). Cell growth was calculated relative to vehicle (DMSO) treated control wells. […]

647V = test: Cell growth inhibition assay, 647V (bladder); assay type: cell-based; conditions: Homo sapiens, 72 h, 3 days, read-out: Single agent IC50 (μM), mean ± STD
Description: as §1, §2, §3

[1] = tested on: five colorectal cancer cell lines; test: Cell growth inhibition assay, colorectal lines; assay type: cell-based; conditions: Homo sapiens; span over the five colorectal cancer cell lines of Table 1; read-out: IC50 values, single agent
HCC1954 = test: Cell growth inhibition assay, HCC1954 (breast HER2+); assay type: cell-based; conditions: Homo sapiens, 72 h, 3 days, read-out: Single agent IC50 (μM), mean ± STD
Description: as §1, §2, §3

BFTC-905 = test: Cell growth inhibition assay, BFTC-905 (bladder); assay type: cell-based; conditions: Homo sapiens, 72 h, 3 days, read-out: Single agent IC50 (μM), mean ± STD
Description: as §1, §2, §3

MDAMB175VII = test: Cell growth inhibition assay, MDAMB175VII (breast HER2−); assay type: cell-based; conditions: Homo sapiens, MDA-MB-175-VII, 72 h, 3 days, read-out: Single agent IC50 (μM), mean ± STD
Description: as §1, §2, §3

LS174T = test: Cell growth inhibition assay, LS174T (colorectal); assay type: cell-based; conditions: Homo sapiens, 72 h, 3 days, read-out: Single agent IC50 (μM), mean ± STD
Description: as §1, §2, §3

A375 S2 = test: Cell growth inhibition assay, A375 S2 (melanoma); assay type: cell-based; conditions: Homo sapiens, A375-S2, 72 h, 3 days, read-out: Single agent IC50 (μM), mean ± STD
Description: as §1, §2, §3

BT474-J4 [2] = test: Cell growth inhibition assay, BT474-J4 (breast HER2+, acquired resistance to Compound A); assay type: cell-based; conditions: Homo sapiens, 72 h, 3 days, read-out: Single agent IC50 (μM), mean ± STD
Description: as §1, §2, §3

CHL1 = test: Cell growth inhibition assay, CHL1 (melanoma); assay type: cell-based; conditions: Homo sapiens, CHL-1, 72 h, 3 days, read-out: Single agent IC50 (μM), mean ± STD
Description: as §1, §2, §3

SUM149 = test: Cell growth inhibition assay, SUM149 (breast HER2−); assay type: cell-based; conditions: Homo sapiens, SUM149, 72 h, 3 days, read-out: Single agent IC50 (μM), mean ± STD
Description: as §1, §2, §3

[3] = tested on: three pancreatic cancer cell lines; test: Cell growth inhibition assay, pancreatic lines; assay type: cell-based, Human; conditions: HPAF-11, Capan-1 and SUIT2
Description: as §1, §2, §3

SUIT2 = test: Cell growth inhibition assay, SUIT2 (pancreatic); assay type: cell-based; conditions: Homo sapiens, SUIT-2, 72 h, 3 days, read-out: Single agent IC50 (μM), mean ± STD
Description: as §1, §2, §3

HPAF-11 = test: Cell growth inhibition assay, HPAF-11 (pancreatic); assay type: cell-based; conditions: Homo sapiens, 72 h, 3 days, read-out: Single agent IC50 (μM), mean ± STD
Description: as §1, §2, §3

BT474 [4] = test: Cell apoptosis assay, DNA fragmentation, BT474; assay type: cell-based, Human; conditions: 48 hours, Roche Cell Death ELISA, combination at 2 to 1 molar ratio A:B (FIG. 2B)
Description: as §1
(§4) For investigation of the induction of apoptosis, cells were plated at 5,000 cells per well in a 96-well tissue culture plate and allowed to attach for approximately 24 hours. Forty-eight hours after treatment with compounds, levels of apoptosis were estimated using the Roche Cell Death ELISA kit (Cat. No. 11 774 425 001) following the instructions provided by the manufacturer.
(§5) FIG. 1. Dose response curves of cell growth inhibition in HCC1954, MDA-MB-175VII, CHL1 and BFTC-905.

KPL4 = test: Cell growth inhibition assay, KPL4 (breast HER2+); assay type: cell-based; conditions: Homo sapiens, KPL4, 72 h, 3 days, read-out: Single agent IC50 (μM), mean ± STD
Description: All cells were cultured for a minimum of 72 hours prior to cell plating. […] Cells were incubated in the presence of compounds for 3 days.
Cell growth was calculated relative to vehicle (DMSO) treated control wells.
In general, a CI value <0.9, between 0.9 and 1.1, or >1.1 indicates synergy, additivity and antagonism, respectively. In general, the smaller the CI number, the greater is the strength of synergy.

NCI-H747 = test: Cell growth inhibition assay, NCI-H747 (colorectal); assay type: cell-based; conditions: Homo sapiens, 72 h, 3 days, read-out: Single agent IC50 (μM), mean ± STD
Description: as §1, §2, §3

SKMEL5 = test: Cell growth inhibition assay, SKMEL5 (melanoma); assay type: cell-based, Human; conditions: 3 days, read-out: Single agent IC50 (μM), mean ± STD
Description: as §1, §2
(§6) Inhibition of cell growth was estimated after treatment with compound or a combination of compounds for three days and comparing the signal to cells treated with vehicle (DMSO). Cell growth was calculated relative to vehicle (DMSO) treated control wells. A concentration of the compound that inhibits 50% of control cell growth (IC50) was interpolated using nonlinear regression with the equation, y=(A+(B−A)/(1+(C/x)^D)))), where A is the minimum response (ymin), B is the maximum response (ymax), C is the inflection point of the curve (EC50) and D is the Hill coefficient. […]

NCI-H508 = test: Cell growth inhibition assay, NCI-H508 (colorectal); assay type: cell-based; conditions: Homo sapiens, 72 h, 3 days, read-out: Single agent IC50 (μM), mean ± STD
Description: as §1, §2, §3

JimT-1 = test: Cell growth inhibition assay, JimT-1 (breast HER2+, trastuzumab-resistant); assay type: cell-based, Human; conditions: for IC50: Homo sapiens, 72 h, JimT-1, 3 days, read-out: Single agent IC50 (μM), mean ± STD; for sensitivity to cell growth inhibition, in words: JIMT-1 HER2+ breast cancer line
Description: as §1, §2, §6

SW780 = test: Cell growth inhibition assay, SW780 (bladder); assay type: cell-based; conditions: Homo sapiens, 72 h, 3 days, read-out: Single agent IC50 (μM), mean ± STD
Description: as §1, §2, §3

T84 = test: Cell growth inhibition assay, T84 (colorectal); assay type: cell-based; conditions: Homo sapiens, 72 h, 3 days, read-out: Single agent IC50 (μM), mean ± STD
Description: as §1, §2, §3

Capan-1 = test: Cell growth inhibition assay, Capan-1 (pancreatic); assay type: cell-based; conditions: Homo sapiens, 72 h, 3 days, read-out: Single agent IC50 (μM), mean ± STD
Description: as §1, §2, §3

SW403 = test: Cell growth inhibition assay, SW403 (colorectal); assay type: cell-based; conditions: Homo sapiens, SW-403, 72 h, 3 days, read-out: Single agent IC50 (μM), mean ± STD
Description: as §1, §2, §3

BT474-J4 [5] = test: Cell apoptosis assay, DNA fragmentation, BT474-J4; assay type: cell-based, Human; conditions: 48 hours, Roche Cell Death ELISA, combination at 2 to 1 molar ratio A:B (FIG. 2B)
Description: as §1, §4, §5

SKBR3 = test: Cell growth inhibition assay, SKBR3 (breast HER2+); assay type: cell-based; conditions: Homo sapiens, SK-BR-3, 72 h, 3 days, read-out: Single agent IC50 (μM), mean ± STD
Description: as §1, §2, §3

AU565 = test: Cell growth inhibition assay, AU565 (breast HER2+); assay type: cell-based; conditions: Homo sapiens, AU565, 72 h, 3 days, read-out: Single agent IC50 (μM), mean ± STD
Description: as §1, §2, §3

HCC1419 = test: Cell growth inhibition assay, HCC1419 (breast HER2+); assay type: cell-based; conditions: Homo sapiens, HCC1419, 72 h, 3 days, read-out: Single agent IC50 (μM), mean ± STD
Description: as §1, §2, §3

BT474 [6] = test: Cell growth inhibition assay, BT474 (breast HER2+); assay type: cell-based; conditions: Homo sapiens, BT-474, 72 h, 3 days, read-out: Single agent IC50 (μM), mean ± STD
Description: as §1, §2, §3

[7] = tested on: HER2 positive (HER2+) breast tumor lines; test: Cell growth inhibition assay, text summary over HER2+ breast lines; assay type: cell-based; conditions: Homo sapiens; the HER2+ breast cancer lines listed in Table 1; read-out: IC50 as a single agent
Description: as §1, §2, §3

HCC2218 = test: Cell growth inhibition assay, HCC2218 (breast HER2+); assay type: cell-based; conditions: Homo sapiens, HCC2218, 72 h, 3 days, read-out: Single agent IC50 (μM), mean ± STD
Description: as §1, §2, §3

Row | SMILES | IC50 (MDA-MB-453) [µM] | IC50 (647V) [µM] | IC50 [1] [nM] | IC50 (HCC1954) [µM] | IC50 (BFTC-905) [µM] | IC50 (LS174T) [µM] | IC50 (BT474-J4 [2]) [µM] | IC50 (CHL1) [µM] | sensitivity as single agents, in words [3] | IC50 (SUIT2) [µM] | IC50 (HPAF-11) [µM] | apoptosis induction determined by DNA fragmentation (BT474 [4]) | IC50 (KPL4) [µM] | IC50 (NCI-H747) [µM] | IC50 (SKMEL5; Homo sapiens, SK-MEL-5, 72 h) [µM] | IC50 (NCI-H508) [µM] | IC50 (JimT-1) [µM] | sensitivity to cell growth inhibition, in words (JimT-1) | IC50 (SW780) [µM] | IC50 (T84) [µM] | also measured
1 | CS(=O)(=O)CCNCc1ccc(-c2ccc3ncnc(Nc4ccc(OCc5cccc(F)c5)c(Cl)c4)c3c2)o1 [Compound A, N-{3-Chloro-4-[(3-fluorobenzyl)oxy]phenyl}-6-[5-({[2-(methanesulphonyl)ethyl]amino}methyl)-2-furyl]-4-quinazolinamine] | 4.48 ± 1.47 | > 10 | 149 to 7180 | 2.41 ± 1.57 | 4.28 ± 0.073 | 7.18 ± 3.93 | > 10 | 0.138 ± 0.004 | resistant | > 10 | 10.5 ± 2.77 | induced apoptosis | < 1 | 2.64 ± 1.75 | 4.74 ± 1.08 | 0.149 ± 0.205 | > 10 | resistant | 4.11 ± 1.39 | 4.28 ± 1.35 | IC50 (MDAMB175VII): 0.146 ± 0.035 µM; IC50 (A375 S2): > 10 µM; IC50 (SUM149): 4.73 ± 1.37 µM; IC50 (Capan-1): > 10 µM; IC50 (SW403): 5.36 ± 1.55 µM
2 | CC(=O)Nc1cccc(-n2c(=O)n(C3CC3)c(=O)c3c(Nc4ccc(I)cc4F)n(C)c(=O)c(C)c32)c1 [Compound B, N-{3-[3-cyclopropyl-5-(2-fluoro-4-iodo-phenylamino)-6,8-dimethyl-2,4,7-trioxo-3,4,6,7-tetrahydro-2H-pyrido[4,3-d]pyrimidin-1-yl]phenyl}acetamide] | > 1 | > 1 | 3 to 99 | > 1 | 0.012 ± 0.003 | 0.099 ± 0.053 | > 1 | 0.461 ± 0.382 | sensitive | 0.196 ± 0.269 | 0.059 ± 0.03 | not active to induce apoptosis | > 1 | 0.003 ± 0.002 | ≤ 0.003 | 0.019 ± 0.005 | > 1 | resistant | 0.07 ± 0.042 | 0.075 ± 0.039 | apoptosis induction determined by DNA fragmentation (BT474-J4 [5]): not active to induce apoptosis; IC50 (SKBR3): > 1 µM; IC50 (AU565): > 1 µM; IC50 (HCC1419): > 1 µM; IC50 (BT474 [6]): > 1 µM; IC50 [7]: > 1000 nM; IC50 (SKMEL5): 0.003 µM; IC50 (HCC2218): > 1 µM; IC50 (Capan-1): 0.086 ± 0.007 µM; IC50 (SW403): 0.005 ± 0.004 µM
